Consider one compound from patent US20110182992A1, “PEPTIDES AND PEPTIDE MIMETICS TO TREAT PATHOLOGIES ASSOCIATED WITH EYE DISEASE” (priority 2008, published 2011).

SMILES strings stand for the structures.

For series [1], the system named is ApoE null mice. Nature of the series: Protection against LDL-induced monocyte chemotactic activity by HDL from apo E null mice given oral peptides. Type of series: in vivo, mouse. The settings on record: ApoE null mice, peptide in drinking water 24 hrs; murine HDL at 100 μg/ml. An excerpt:
FIG. 4 illustrates protection against LDL-induced monocyte chemotactic activity by HDL from apo E null mice given oral peptides. The values are the mean±SD of the number of migrated monocytes in 9 high power fields from each of quadruple assay wells. Asterisks indicate significant difference (p<0.05) as compared to No Peptide mHDL.
After 24 hrs blood was collected, plasma fractionated by FPLC and fractions containing LDL (designated as mLDL for murine LDL) and fractions containing HDL (designated as mHDL) were separately pooled and HDL protective capacity against LDL oxidation as determined by LDL-induced monocyte chemotactic activity was determined. For the assay controls the culture wells received no lipoproteins (no additions), mLDL alone (at 200 μg cholesterol/ml), or mLDL+ standard normal human HDL (designated as Cont. h HDL, at 350 μg HDL cholesterol/ml).
For testing the murine HDL, mLDL together with murine HDL (+F mHDL or +J mHDL) were added to artery wall cell cultures. […] The murine HDL was used at 100µg cholesterol/ml.

For series [2] the following is noted: in vivo; cited from earlier work.
For series [3] the following is noted: mouse, in vivo.
Series [4] concerns Obese Zucker rats. Kind of series: Plasma glucose and lipid hydroperoxides (LOOH) in obese Zucker rats. The settings on record: Obese Zucker rats 26 weeks of age, 5.0 mg/kg/day intraperitoneal, 10 days. Type of series: in vivo, rat. The method, then:
Obese Zucker rats 26 weeks of age were bled and then treated with daily intraperitoneal injections of D-4F (5.0 mg/kg/day). After 10 days the rats were bled again plasma glucose and lipid hydroperoxides (LOOH) were determined. *p=0.027; **p=0.0017.

In series [5] the test system is ApoE null mice. Kind of series: Trabecular bone mineral density, peptide in drinking water. The settings on record: drinking water for 6 weeks. Type of series: in vivo, mouse.
The test system of series [6] is ApoE null mice. Nature of the series: HDL Inflammatory Index, D-4F versus Reverse D-4F by stomach tube. Type of series: in vivo, mouse. The settings on record: apoE null mice, 0, 3, 6, 12 or 25 micrograms by stomach tube, blood 7 hours later. The method, then: Female apoE null mice were administered by stomach tube 0, 3, 6, 12, or 25 micrograms of D-4F or Reverse D-4F in 100 microliters of water. Blood was obtained 7 hours later and the plasma was fractionated by FPLC. A standard control human LDL was added to human artery wall cells at a concentration of 100 micrograms of LDL-cholesterol/mL (LDL). The resulting monocyte chemotactic activity was normalized to 1.0. […] The resulting monocyte chemotactic activity was normalized to that of the LDL added without HDL. The resulting value is the HDL Inflammatory Index. The results shown are the Mean±S.D. for the data from three separate experiments.

For series [7], the system named is ApoE null mice. Kind of series: HDL function after D-4F and/or statin in the drinking water. Format: in vivo, mouse. The settings on record: 1 μg/ml in the drinking water for 24 hours.
The test system of series [8] is LDL receptor null mice. Nature of the series: HDL protective capacity in LDL receptor null mice given peptide in drinking water. Format: in vivo. The settings on record: 0.25 or 0.5 mg per ml of drinking water, 24 or 48 hrs, mouse HDL at 100 μg/ml. The method, then:
FIG. 3 illustrates the effect of apo J peptide mimetics on HDL protective capacity in LDL receptor null mice. The values are the mean±SD of the number of migrated monocytes in 9 high power fields from each of quadruple assay wells.
D-4F designated as F, or the apoJ peptide made from D amino acids (D-J336, designated as J) was added to the drinking water of LDL receptor null mice (4 per group) at 0.25 or 0.5 mg per ml of drinking water. After 24- or 48-hrs blood was collected from the mice and their HDL was isolated and tested for its ability to protect against LDL-induced monocyte chemotactic activity. Assay controls included culture wells that received no lipoproteins (no addition), or control human LDL alone (designated as LDL, 200µg cholesterol/ml), or control LDL+ control human HDL (designated as +HDL, 350µg HDL cholesterol). For testing the mouse HDL, the control LDL was added together with mouse HDL (+F HDL or +J HDL) to artery wall cell cultures. The mouse HDL was added at 100 μg cholesterol/ml respectively.

Series [9] deals with ApoE null mice. Kind of series: HDL and pre-beta HDL from apoE null mice fed solution-phase synthesized D-4F: inhibition of LDL-induced monocyte chemotaxis. Type of series: in vivo, mouse. The settings on record: ApoE null mice fed 5 micrograms in chow, bled after twelve hours; product of solution phase synthesis. An excerpt: ApoE null mice were fed 5 micrograms of the D-4F synthesized as described above (Frgmnt) or the mice were given the same amount of mouse chow without D-4F (Chow). Twelve hours after the feeding was started, the mice were bled and their plasma was fractionated on FPLC.

Consider `CC(=O)N[C@H](CC(=O)O)C(=O)N[C@H](Cc1c[nH]c2ccccc12)C(=O)N[C@H](Cc1ccccc1)C(=O)N[C@H](CCCCN)C(=O)N[C@H](C)C(=O)N[C@H](Cc1ccccc1)C(=O)N[C@H](Cc1ccc(O)cc1)C(=O)N[C@H](CC(=O)O)C(=O)N[C@H](CCCCN)C(=O)N[C@@H](C(=O)N[C@H](C)C(=O)N[C@H](CCC(=O)O)C(=O)N[C@H](CCCCN)C(=O)N[C@H](Cc1ccccc1)C(=O)N[C@H](CCCCN)C(=O)N[C@H](CCC(=O)O)C(=O)N[C@H](C)C(=O)N[C@H](Cc1ccccc1)C(N)=O)C(C)C` [Peptide D-4F, Ac-D-W-F-K-A-F-Y-D-K-V-A-E-K-F-K-E-A-F-NH2], for which the “activity of murine HDL against LDL-induced monocyte chemotactic activity” value in series [1] was “as active as 350µg/ml of normal human HDL”. Moreover, in series [2], the side effects result was “no side effects”. The “association with pre-beta HDL and HDL” value in series [3] was “rapidly associates with pre-beta HDL and HDL”. In series [3] (po), the “time after an oral dose at which essentially non-detectable in the circulation” value was determined as 6 h. Also, the “mitigation of symptoms of diabetes (plasma glucose, lipid hydroperoxides)” value in series [4] is “effective in mitigating symptoms of diabetes”. Also, in series [5], the “trabecular bone mineral density” value is “dramatically increased trabecular bone mineral density”. In addition, the “biological activities (HDL Inflammatory Index), D-4F versus Reverse D-4F” value in [6] was “not significantly different”. Further, in series [7], the “HDL function, D-4F alone” value is “did not significantly improve HDL function”. Moreover, the “activity of mouse HDL in preventing control LDL from inducing artery wall cells to produce monocyte chemotactic activity” value in [8] was “as active as 350 μg/ml of control human HDL”. The “biological activity in producing HDL and pre-beta HDL that inhibit LDL-induced monocyte chemotaxis” value in [9] was “very biologically active in producing HDL and pre-beta HDL that inhibit LDL-induced monocyte chemotaxis”.
